# According to paper PMC4919066 (PLoS Pathogens, 2016):
# pEC50: −log10 of the molar value. Structures can show the parent of a compound that is named as a salt.
# How the values were obtained:
# MCMV = MCMV plaque reduction assay in MEFs; format: cell-based, mouse CMV
# Protocol: The pp28-luciferase HCMV Towne and a GCV-resistant pp28-luciferase were used. The recombinant viruses express luciferase under the control of the late CMV gene promoter, pp28. Luciferase expression is activated 48–72 hours post infection (hpi). The recombinant viruses provide a highly-sensitive reporter system which correlates with plaque reduction assay. The Towne HCMV strain (ATCC VR-977) was used for plaque reduction, quantitative reverse transcriptase PCR (qRT-PCR), and immunoprecipitation assays. Human herpes virus strains were: luciferase HSV1- KOS/Dlux/oriS [52] and clinical isolates of HSV2. The clinical isolates were provided by the clinical microbiology laboratory with no identifiers that can link to a specific subject. Murid Herpesvirus (MCMV: ATCC VR-1399) was used for infection of mouse embryonic fibroblasts (MEFs) and mice.
# Human Foreskin Fibroblasts (HFFs) passage 12–16 (ATCC, CRL-2088) and mouse embryonic fibroblasts (MEFs) passage 9–14 (ATCC, CRL-1658) were grown in Dulbecco's Modified Eagle Medium (DMEM) containing 10% fetal bovine serum (FBS) (Gibco, Carlsbad, CA) in a 5% CO2 incubator at 37°C. Infection with HCMV or HSV was performed in HFFs, and infection with mouse CMV was performed in MEFs. For HCMV, cells were seeded in either a 96-well plate or 100 mm culture plates (Corning Costar, Sigma Aldrich) at 0.5 or 2 million cells /plate. Following 90 minute adsorption, media was removed and cells were washed with PBS. Media containing 4% FBS and compounds were added to each well. Infected treated HFFs were collected at 72 hpi and lysates were assayed for luciferase activity using a luciferase assay kit (Promega, Madison, WI) on GloMax-Multi+ Detection System (Promega). In second cycle assays, supernatants were collected from all conditions of the first cycle at 96 hpi and used for infection of fresh HFFs in 96-well plates. Luciferase activity was measured 72 h following second cycle infection. […] After incubation at 37°C for 10 days (for HCMV), 3 days for MCMV or 2 days (for HSV), the overlay was removed and plaques were counted after crystal violet staining.
# HCMV Towne [1] = assay: HCMV plaque reduction assay in HFFs; format: cell-based, Human Cytomegalovirus
# Protocol: Human Foreskin Fibroblasts (HFFs) passage 12–16 (ATCC, CRL-2088) and mouse embryonic fibroblasts (MEFs) passage 9–14 (ATCC, CRL-1658) were grown in Dulbecco's Modified Eagle Medium (DMEM) containing 10% fetal bovine serum (FBS) (Gibco, Carlsbad, CA) in a 5% CO2 incubator at 37°C. Infection with HCMV or HSV was performed in HFFs, and infection with mouse CMV was performed in MEFs. For HCMV, cells were seeded in either a 96-well plate or 100 mm culture plates (Corning Costar, Sigma Aldrich) at 0.5 or 2 million cells /plate. Following 90 minute adsorption, media was removed and cells were washed with PBS. Media containing 4% FBS and compounds were added to each well. Infected treated HFFs were collected at 72 hpi and lysates were assayed for luciferase activity using a luciferase assay kit (Promega, Madison, WI) on GloMax-Multi+ Detection System (Promega). In second cycle assays, supernatants were collected from all conditions of the first cycle at 96 hpi and used for infection of fresh HFFs in 96-well plates. Luciferase activity was measured 72 h following second cycle infection. For HSV1-KOS/Dlux/oriS, a luciferase assay was performed at 24 hpi. Plaque assays were performed with clinical isolates of HSV2 and HCMV Towne (ATCC VR-977). HFFs were seeded at […] in 12-well plates and infected 24 h later with HSV2 at 200 PFU/well. For HCMV or MCMV, HFFs or MEFs were seeded at 0.5 or 2 million cells /plate in a 12-well plate and infected 24 hours later at 100 PFU/well. Following virus adsorption (60 min and 90 min for HSV and HCMV, respectively), virus was aspirated, and DMEM containing 4% fetal bovine serum (FBS) with (for HSV) or without (for HCMV/MCMV) 0.5% carboxymethyl-cellulose, were added with the compounds at indicated concentrations into triplicate wells. After incubation at 37°C for 10 days (for HCMV), 3 days for MCMV or 2 days (for HSV), the overlay was removed and plaques were counted after crystal violet staining.
# in vivo = assay: in vivo; design: species or system BALB/c mice
# Protocol: The dosing solution was prepared in saline with a dosing volume of 10 mL/kg. Blood and tissue samples including liver, lung and spleen were collected at 0, 0.083, 0.25, 0.5, 0.75, 1, 2, 3, 4, 7, 24, 30, 48, 72 and 96 hr. […] Pharmacokinetic parameters (Cmax, Tmax, AUC and t1/2) were calculated with a non-compartmental approach using the Pharsight WinNonLin software (Ver. 6.4). The experimental procedures were approved by the Animal Care and Use Committee of Division of Veterinary Resources, NIH.
# HCMV Towne [2] = assay: Add-on and removal studies, plaque titration; format: cell-based, Human Cytomegalovirus; conditions: supernatants at 72 hpi
# Protocol: For time-of-removal studies, medium containing the compounds was removed at 0, 6, 12, 24, 36 and 48 hpi, cells were washed three times with PBS, and drug-free medium was added. Culture supernatants were collected at 72 hpi and titration of infectious virus was performed after 14 days by plaque assay.
# [3] = 0.083 h after single oral 0.1 mg/kg, BALB/c mice
# [4] = 0.25 h after single oral 0.1 mg/kg, BALB/c mice
# [5] = 0.5 h after single oral 0.1 mg/kg, BALB/c mice
# [6] = 1 h after single oral 0.1 mg/kg, BALB/c mice
# [7] = 2 h after single oral 0.1 mg/kg, BALB/c mice
# [8] = 3 h after single oral 0.1 mg/kg, BALB/c mice
# [9] = 4 h after single oral 0.1 mg/kg, BALB/c mice
# [10] = 7 h after single oral 0.1 mg/kg, BALB/c mice
# [11] = 24 h after single oral 0.1 mg/kg, BALB/c mice
# [12] = 30 h after single oral 0.1 mg/kg, BALB/c mice
# [13] = 48 h after single oral 0.1 mg/kg, BALB/c mice
# [14] = 72 h after single oral 0.1 mg/kg, BALB/c mice
# [15] = 96 h after single oral 0.1 mg/kg, BALB/c mice
compound,measurement,setting,value
"CC[C@H]1CN2CCc3cc(OC)c(OC)cc3[C@@H]2C[C@@H]1C[C@H]1NCCc2cc(OC)c(OC)cc21 [emetine, emetine dihydrochloride hydrate]",MCMV plaque reduction and cell density,"MCMV; emetine 75 nM, 0.5 and 2 million cells/plate",cell-density dependent response
same,pEC50,"MCMV; in Mus musculus, MCMV, plaque assay, read-out: Mean EC50 ± SD",7.44
same,pEC50,"HCMV Towne [1]; Human betaherpesvirus 5, read-out: Mean EC50 ± SD",7.17
same,reduction in the number and size of plaques,"HCMV Towne [1]; emetine 75 nM, 2 million cells/plate as compared to 0.5 million cells/plate",30 fold
same,LIVER Conc.,in vivo; [3],0.007 µmol/kg
same,LIVER Mean Conc.,in vivo; [3],3.59 ng/g
same,LUNG Conc.,in vivo; [3],0.002 µmol/kg
same,LUNG Mean Conc.,in vivo; [3],1.07 ng/g
same,LIVER Conc.,in vivo; [4],0.013 µmol/kg
same,LIVER Mean Conc.,in vivo; [4],6.18 ng/g
same,LUNG Conc.,in vivo; [4],0.003 µmol/kg
same,LUNG Mean Conc.,in vivo; [4],1.49 ng/g
same,LIVER Conc.,in vivo; [5],0.037 µmol/kg
same,LIVER Mean Conc.,in vivo; [5],17.7 ng/g
same,LUNG Conc.,in vivo; [5],0.006 µmol/kg
same,LUNG Mean Conc.,in vivo; [5],2.90 ng/g
same,SPLEEN Conc.,in vivo; [5],0.002 µmol/kg
same,SPLEEN Mean Conc.,in vivo; [5],1.12 ng/g
same,LIVER Conc.,in vivo; [6],0.117 µmol/kg
same,LIVER Mean Conc.,in vivo; [6],56.5 ng/g
same,LUNG Conc.,in vivo; [6],0.017 µmol/kg
same,LUNG Mean Conc.,in vivo; [6],8.11 ng/g
same,SPLEEN Conc.,in vivo; [6],0.012 µmol/kg
same,SPLEEN Mean Conc.,in vivo; [6],5.60 ng/g
same,LIVER Conc.,in vivo; [7],0.192 µmol/kg
same,LIVER Mean Conc.,in vivo; [7],92.2 ng/g
same,LUNG Conc.,in vivo; [7],0.020 µmol/kg
same,LUNG Mean Conc.,in vivo; [7],9.70 ng/g
same,SPLEEN Conc.,in vivo; [7],0.018 µmol/kg
same,SPLEEN Mean Conc.,in vivo; [7],8.81 ng/g
same,LIVER Conc.,in vivo; [8],0.316 µmol/kg
same,LIVER Mean Conc.,in vivo; [8],152 ng/g
same,LUNG Conc.,in vivo; [8],0.037 µmol/kg
same,LUNG Mean Conc.,in vivo; [8],17.9 ng/g
same,SPLEEN Conc.,in vivo; [8],0.032 µmol/kg
same,SPLEEN Mean Conc.,in vivo; [8],15.3 ng/g
same,LIVER Conc.,in vivo; [9],0.437 µmol/kg
same,LIVER Mean Conc.,in vivo; [9],210 ng/g
same,LUNG Conc.,in vivo; [9],0.071 µmol/kg
same,LUNG Mean Conc.,in vivo; [9],34.2 ng/g
same,SPLEEN Conc.,in vivo; [9],0.064 µmol/kg
same,SPLEEN Mean Conc.,in vivo; [9],30.6 ng/g
same,LIVER Conc.,in vivo; [10],0.527 µmol/kg
same,LIVER Mean Conc.,in vivo; [10],253 ng/g
same,LUNG Conc.,in vivo; [10],0.097 µmol/kg
same,LUNG Mean Conc.,in vivo; [10],46.6 ng/g
same,SPLEEN Conc.,in vivo; [10],0.093 µmol/kg
same,SPLEEN Mean Conc.,in vivo; [10],44.9 ng/g
same,LIVER Conc.,in vivo; [11],0.193 µmol/kg
same,LIVER Mean Conc.,in vivo; [11],93.0 ng/g
same,LUNG Conc.,in vivo; [11],0.138 µmol/kg
same,LUNG Mean Conc.,in vivo; [11],66.1 ng/g
same,SPLEEN Conc.,in vivo; [11],0.175 µmol/kg
same,SPLEEN Mean Conc.,in vivo; [11],84.3 ng/g
same,LIVER Conc.,in vivo; [12],0.174 µmol/kg
same,LIVER Mean Conc.,in vivo; [12],83.6 ng/g
same,LUNG Conc.,in vivo; [12],0.133 µmol/kg
same,LUNG Mean Conc.,in vivo; [12],64.1 ng/g
same,SPLEEN Conc.,in vivo; [12],0.193 µmol/kg
same,SPLEEN Mean Conc.,in vivo; [12],92.5 ng/g
same,LIVER Conc.,in vivo; [13],0.073 µmol/kg
same,LIVER Mean Conc.,in vivo; [13],34.9 ng/g
same,LUNG Conc.,in vivo; [13],0.078 µmol/kg
same,LUNG Mean Conc.,in vivo; [13],37.4 ng/g
same,SPLEEN Conc.,in vivo; [13],0.139 µmol/kg
same,SPLEEN Mean Conc.,in vivo; [13],66.6 ng/g
same,LIVER Conc.,in vivo; [14],0.044 µmol/kg
same,LIVER Mean Conc.,in vivo; [14],21.2 ng/g
same,LUNG Conc.,in vivo; [14],0.049 µmol/kg
same,LUNG Mean Conc.,in vivo; [14],23.7 ng/g
same,SPLEEN Conc.,in vivo; [14],0.094 µmol/kg
same,SPLEEN Mean Conc.,in vivo; [14],45.2 ng/g
same,LIVER Conc.,in vivo; [15],0.028 µmol/kg
same,LIVER Mean Conc.,in vivo; [15],13.5 ng/g
same,LUNG Conc.,in vivo; [15],0.030 µmol/kg
same,LUNG Mean Conc.,in vivo; [15],14.3 ng/g
same,SPLEEN Conc.,in vivo; [15],0.058 µmol/kg
same,SPLEEN Mean Conc.,in vivo; [15],28.1 ng/g
same,half-life,"in vivo; male, mouse, in vivo, single oral 0.1 mg/kg, BALB/c mice, read-out: calculated half-life (converted)",35 h
same,plasma concentrations,"in vivo; single oral 0.1 mg/kg, male BALB/c mice, UPLC-MS/MS",mostly below the level limit of quantification
same,anti-HCMV activity when added after infection (add-on),HCMV Towne [2]; addition after 12 h,loss of activity against HCMV
same,time compound is required to fully inhibit HCMV (removal assay),HCMV Towne [2]; plaque assay,at least 24 h
